System: Wnt activity (wnt-responsive SP5 promoter luciferase reporter in SW480 cells)
Test: Wnt activity reporter assay (SP5 promoter-firefly luciferase in SW480 cells)
Format: cell-based
Conditions: Homo sapiens; SW480 colon cancer cells with SP5 promoter luciferase reporter; 24 h after compound addition; half-log dilutions, three micromolar top concentration; normalized to DMSO; read-out: Wnt inhibition
Method in brief: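 SW480 cells (APC-mutant) stably carried a lentiviral SP5-promoter (eight TCF/LEF sites) firefly luciferase reporter. Signals were normalized to DMSO-only cells to derive IC50.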

Compound | IC50
c1cc(-c2ccoc2)c2nc(-c3n[nH]c4ccc(-c5cncc(CN6CCCCC6)c5)cc34)[nH]c2c1 [Compound 279, 3-(4-(Furan-3-yl)-1H-benzo[d]imidazol-2-yl)-5-(5-(piperidin-1-ylmethyl)pyridin-3-yl)-1H-indazole] | 0.418 µM
CCCC(=O)Nc1cncc(-c2ccc3[nH]nc(-c4nc5c(-c6ccoc6)cccc5[nH]4)c3c2)c1 [Compound 281, N-(5-(3-(4-(Furan-3-yl)-1H-benzo[d]imidazol-2-yl)-1H-indazol-5-yl)pyridin-3-yl)butyramide] | 0.025 µM
O=C(Nc1cncc(-c2ccc3[nH]nc(-c4nc5c(-c6ccoc6)cccc5[nH]4)c3c2)c1)C1CC1 [Compound 283, N-(5-(3-(4-(Furan-3-yl)-1H-benzo[d]imidazol-2-yl)-1H-indazol-5-yl)pyridin-3-yl)cyclopropanecarboxamide] | 0.057 µM

From patent US10654832B2, “3-(benzoimidazol-2-YL)-indazole inhibitors of the Wnt signaling pathway and therapeutic uses thereof” (Samumed, LLC, priority 2013, dated 2020)
